The numbers were not newly measured in patent publication US7329673B2, “Acylated spiropiperidine derivatives as melanocortin-4 receptor agonists” (Merck & Co., Inc., priority 2003, dated 2008), which cites them from elsewhere.

Series [1] relates to men with erectile dysfunction. The conditions noted are these: for duration of effect / onset of action: after an oral dose; for share of men/patients in whom effective (adequate response): oral.
Series [2] relates to males with psychogenic erectile dysfunction.
For series [3] the following is noted: in vivo, po.

As to `Cc1ccc(N(CC2=NCCN2)c2cccc(O)c2)cc1` [phentolamine], in series [1], the duration of effect was 2 h, the onset of action is 5 to 30 min and the “share of men/patients in whom effective (adequate response)” value is 35-40%.

As for “Ac-Nle-c[Asp-His-DPhe-Arg-Trp-Lys]-NH2 [MT-II]”, in series [2] (in vivo), the duration of action entry is on record as “approximately 2.5 hours” and the “time to onset of erection” value was 10 to 20 min. For the same compound, the response rate in series [2] (injected intramuscularly or subcutaneously) was 75%. Also, in series [3], the “absorption into the systemic circulation” value was “not absorbed into the systemic circulation”.

Regarding `CCCc1nn(C)c2c(=O)[nH]c(-c3cc(S(=O)(=O)N4CCN(C)CC4)ccc3OCC)nc12` [sildenafil], in series [1], the duration of effect entry is “about 4 hours”, the onset of action was 30 to 60 min and the “share of men/patients in whom effective (adequate response)” value was “about 70%”.
